Assays:
[1] = Plasma stability assay; type: in vitro ADME; settings: human plasma diluted 2-fold in PBS, pH 7.4, 37 °C, 180 min, read-out: Plasma stability t1/2
Procedure: The effects of candidate ASBIs on BACE2 activity was assessed using the R&D Systems BACE2 activity assay kit (Catalog #: 4097-AS and ES010) formatted from to the manufacturers. For the assay, 4 μL of assay buffer was added to each well, followed by 2 μL of BACE2 diluted in assay buffer to 10 ng/µL.
Then, 2 μL of inhibitor, at the appropriate concentrations were added to the wells and incubated for 30 minutes at room temperature. For all dilutions of inhibitor, drug stock solutions of 10 mM in DMSO were diluted to 50 μM in water; subsequent dilutions were in 0.5% DMSO. Afterwards, 2 μL of fluorogenic BACE2 substrate, diluted to 50 μM in assay buffer, were added to each well, after which the signal generated was read every 30 minutes at 25 °C for 2 hr (Fig S2).
FAH65 and its enantiomers at 10 mM in 100% DMSO was diluted in PBS pH 7.4 to 100, 10, 1, and 0.1 µM; plus, a vehicle-only control. The solutions were incubated at 37 °C for 90 min and centrifuged at 16K x g for 5 min. An aliquot of each supernatant was analyzed by LC-MS/MS. […]
Kinetic solubility (µM) was calculated using the trendline equation with maximum chromatographic peak area observed in the aqueous sample. […]
([…]® CAN, Chiral Technologies, Cat#H15L-109, 5 µm 50 x 4 mm). […] The retention time of the compound (tr) and injection peak were recorded.
The percent protein binding (P) was calculated using the following equations: […]

[2] = Pilot PK of FAH65 vs. verubecestat in rats; type: in vivo, rat; settings: oral gavage, 30 mg/kg
[3] = PK of FAH65E(-) in ApoE4-TR:5xFAD mice; type: in vivo, mouse; settings: 30 mkd oral, from brain Fu
Procedure: A PK/PD study of FAH65E(-) hydrochloride was performed using ApoE4-TR:5xFAD mice that express APOE4 under the control of the endogenous mouse APOE promoter crossed to 5xFAD mice (Tg6799) which co-express five FAD mutations (APP K670 N/M671L + I716V + V717I and PS1 M146L + L286V) under the control of the neuron-specific mouse Thy-1 promoter. The resulting mice, on a 97 % C57Bl/6J and 3 % SJL background, are homozygous for APOE4 and hemizygous for the 5XFAD transgenes. Both male and female mice 6–8 months of age were used. Mice received two doses (a.m. and p.m.) of 30 mg/kg FAH65E(-) by oral gavage on day 1; on day 2, after a single dose (a.m.) mice were euthanized at 1, 2, 4 and 6 h, n = 3 per time point. FAH65 and sAPPβ levels in brain were determined in brain tissue by LC-MS (see Supplementary Methods) and ELISA , respectively.

[4] = Liver microsome stability assay; type: in vitro ADME; settings: human, human liver microsomes, pH 7.4, human liver microsomes; read-out: Microsomal stability T1/2
Procedure: Liver microsome stability assay
A 1 µL sample of 1 mM FAH65 and its enantiomers in 100% DMSO was added to 1 mL of 0.5 mg/mL human liver microsomes (Thermo Fisher Scientific, Cat# HMMPL) in PBS pH 7.4, 2 mM NADPH, and 2 mM MgCl2; and incubated at 37 °C for 120 min. Aliquots (50 µL) of the microsome solution were taken […]
quenching solution containing an internal standard. Solutions were clarified by centrifugation (16K x g, 5 min) and supernatants transferred to new tubes and lyophilized. Samples were reconstituted in 100 µL of 50/50/0.1 water/acetonitrile/formic acid prior to analysis via LC-MS/MS.
Normalized chromatographic peak areas were plotted at each time point and the half-life (t1/2) of compound in liver microsomes was determined by using the trendline equation to calculate the time at which compound abundance was 50% of that at timepoint 0 (T0).
One µL FAH65 and its enantiomers (1 mM in 100% DMSO) was added to human peripheral blood plasma (Cat#70039, Stemcell Technologies Inc) diluted 2-fold in PBS (1000 µL, pH 7.4) and incubated […]
and 180 min, and added to a 200 µL 100% acetonitrile reaction quenching solution containing an internal standard. Solutions were clarified by centrifugation (16K x g, 5 min) and supernatants were transferred to new tubes and lyophilized. […]

half-life at 1 µM [1]: > 180 min
Cmax ([2]; both sexes, Sprague-Dawley, rat, brain): 182 ng/g
time of brain Cmax [2]: 2 h
Unbound brain concentration at Cmax [3]: 9.6 nM
half-life at 1 µM [4]: 38 min
Compound: Cc1cc(C2(c3cccc(-c4cncnc4)c3)N=C(N)N(C)C2=O)ccc1OC(F)F (centres unmarked) [FAH65]
